Data published in publication PMC9429672, “Structure and diffusive dynamics of aspartate α-decarboxylase (ADC) liganded with D-serine in aqueous solution” (Physical Chemistry Chemical Physics, 2022).

Biological target: T1, aspartate α-decarboxylase (ADC) (Escherichia coli, UniProt A0A4Y8GT61)
T1 construct: gene panD; recombinant, purified from E. coli by earlier protocols; zymogen self-cleaved into alpha and beta chains, pyruvoyl cofactor at beta N-terminus; homotetramer
Assay: X-ray crystal structure of soaked crystal
Assay type: binding
Conditions: crystals in 1.8 M ammonium sulphate, 100 mM sodium citrate pH 4.5, D-serine soak about 2 min; active site; two ligand conformers (60% / 40% occupancy); inhibitor

N[C@H](CO)C(=O)O [D-serine]
X-ray crystal structure of soaked crystal: The crystal structure of ADC in complex with D-serine was determined
